Measurements from patent US8669249B2, “Poly (ADP-ribose) polymerase (PARP) inhibitors” (Takeda Pharmaceutical Company Limited, priority 2009, dated 2014).

Legend:
Jurkat cell line = experiment: PARP cellular chemopotentiation assay (MTS, with/without TMZ); format: cell-based; conditions: Chemopotentiation factor: ratio of EC50 values of Jurkat cells co-treated without and with 100 μM TMZ; 96 hours
Procedure, shortened: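 Jurkat cells, 10,000/well, pre-cultured 24 h, then treated 96 h with serial compound dilutions (0.5% DMSO) with or without 100 μM TMZ. Viability by MTS conversion (OD490), normalized to DMSO controls; EC50 from curve fits, PF50 = EC50 without TMZ / EC50 with TMZ.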

PARP = molecular target: T1, PARP (Homo sapiens, UniProt P09874); experiment: PARP ELISA (ELISA-based colorimetric PARP/Apoptosis Assay kit, Trevigen); format: biochemical; conditions: pIC50=-log10 IC50, IC50 in mol/L; inhibition of PARP catalytic activity
T1 construct: purchased Trevigen 4684-096-K HT (kit); 4684-096-01 (PARP enzyme)
Procedure, shortened: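 Quenched after 10 min catalysis by aspiration and four PBS/0.1% Triton X-100 washes. Poly(ADP-ribose) detected with mouse anti-PAR monoclonal antibody, goat anti-mouse IgG-HRP and HRP substrate; colorimetric signal proportional to PARP catalytic activity.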

[1] = molecular target: T2, catalytic domain of Human PARP (Homo sapiens, UniProt P09874); experiment: Biacore surface plasmon resonance affinity assay; format: binding; conditions: pKD=-log10 KD, KD in mol/L; Biacore T100, 25° C.; read-out: pKD (converted)
T2 construct: The catalytic domain of Human PARP was cloned and prepared; made in house
Procedure, shortened: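 Human PARP catalytic domain amine-coupled to CM5 chip; compounds run as 2-fold series in HBS-P with 1% DMSO, 0.5 mM TCEP, 5 mM MgCl2.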

T2 sequence (P09874 788-1014 limits assumed): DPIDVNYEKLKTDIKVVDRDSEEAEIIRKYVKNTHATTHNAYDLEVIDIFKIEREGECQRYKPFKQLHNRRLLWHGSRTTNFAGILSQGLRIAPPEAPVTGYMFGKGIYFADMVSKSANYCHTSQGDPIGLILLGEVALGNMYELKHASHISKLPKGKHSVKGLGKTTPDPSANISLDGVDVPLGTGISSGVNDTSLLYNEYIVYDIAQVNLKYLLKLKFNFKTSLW
T1 sequence (P09874 whole entry): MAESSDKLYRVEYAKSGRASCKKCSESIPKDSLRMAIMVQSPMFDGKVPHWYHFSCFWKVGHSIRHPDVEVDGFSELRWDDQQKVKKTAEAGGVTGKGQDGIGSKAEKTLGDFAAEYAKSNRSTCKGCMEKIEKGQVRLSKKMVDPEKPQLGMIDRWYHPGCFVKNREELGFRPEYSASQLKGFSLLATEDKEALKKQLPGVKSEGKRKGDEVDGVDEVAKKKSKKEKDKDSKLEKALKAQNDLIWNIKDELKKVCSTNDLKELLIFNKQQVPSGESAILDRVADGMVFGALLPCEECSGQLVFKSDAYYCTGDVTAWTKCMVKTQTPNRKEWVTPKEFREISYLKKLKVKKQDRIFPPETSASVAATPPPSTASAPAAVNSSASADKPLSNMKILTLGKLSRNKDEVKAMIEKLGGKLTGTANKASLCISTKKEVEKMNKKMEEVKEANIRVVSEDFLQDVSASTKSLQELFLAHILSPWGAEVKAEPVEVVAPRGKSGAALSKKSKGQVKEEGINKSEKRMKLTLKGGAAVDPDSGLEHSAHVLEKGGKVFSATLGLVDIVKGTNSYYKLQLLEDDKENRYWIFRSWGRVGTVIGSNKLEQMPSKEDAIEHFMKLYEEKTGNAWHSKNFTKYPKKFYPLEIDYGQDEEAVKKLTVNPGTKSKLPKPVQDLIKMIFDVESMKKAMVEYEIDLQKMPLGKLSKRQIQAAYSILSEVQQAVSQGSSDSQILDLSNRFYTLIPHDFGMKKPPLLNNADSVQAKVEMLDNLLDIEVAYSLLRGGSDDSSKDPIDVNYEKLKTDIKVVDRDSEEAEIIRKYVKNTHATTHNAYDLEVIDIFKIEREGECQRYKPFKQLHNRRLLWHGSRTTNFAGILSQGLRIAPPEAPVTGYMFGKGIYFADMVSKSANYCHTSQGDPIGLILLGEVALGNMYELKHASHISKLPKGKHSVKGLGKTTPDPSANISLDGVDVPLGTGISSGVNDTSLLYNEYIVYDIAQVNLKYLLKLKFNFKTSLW

IC50 (PARP)	Kd [1]	Structure (SMILES)	PF50 (Jurkat cell line)
39.8 to 100 nM	≤ 10 nM	CC1Oc2ccc(CN3CCN(c4ccc(Cl)cn4)CC3)cc2NC1=O (stereo not drawn) [Compound 61, 6-((4-(5-Chloropyridin-2-yl)piperazin-1-yl)methyl)-2-methyl-2H-benzo[b][1,4]oxazin-3(4H)-one]	≦0.9
≥ 126 nM	≤ 10 nM	COc1cc(CN2CCN(c3ccccc3)CC2)cc2c1OC(C)C(=O)N2 (stereo not drawn) [Compound 156, 8-Methoxy-2-methyl-6-((4-phenylpiperazin-1-yl)methyl)-2H-benzo[b][1,4]oxazin-3(4H)-one]	1.0-1.9
≤ 31.6 nM	< 31.6 nM	CNC(=O)c1ccc(N2CCN(Cc3cc4c(c(OC)c3)OC(C)C(=O)N4)CC2)cc1 (stereo not drawn) [Compound 161, 4-(4-((8-Methoxy-2-methyl-3-oxo-3,4-dihydro-2H-benzo[b][1,4]oxazin-6-yl)methyl)piperazin-1-yl)-N-methylbenzamide]	≧10.0
≤ 31.6 nM	< 31.6 nM	CCNC(=O)c1ccc(N2CCN(Cc3cc4c(c(OC)c3)OC(C)C(=O)N4)CC2)cc1 (stereo not drawn) [Compound 162, N-Ethyl-4-(4-((8-methoxy-2-methyl-3-oxo-3,4-dihydro-2H-benzo[b][1,4]oxazin-6-yl)methyl)piperazin-1-yl)benzamide]	2.0-9.9
≤ 31.6 nM	< 31.6 nM	COc1cc(CN2CCN(c3ccc(C(=O)NC4CC4)cc3)CC2)cc2c1OC(C)C(=O)N2 (stereo not drawn) [Compound 163, N-Cyclopropyl-4-(4-((8-methoxy-2-methyl-3-oxo-3,4-dihydro-2H-benzo[b][1,4]oxazin-6-yl)methyl)piperazin-1-yl)benzamide]	≧10.0
≤ 31.6 nM	< 31.6 nM	COc1cc(CN2CCN(c3ccc(C(=O)NC(C)C)cc3)CC2)cc2c1OC(C)C(=O)N2 (stereo not drawn) [Compound 164, N-Isopropyl-4-(4-((8-methoxy-2-methyl-3-oxo-3,4-dihydro-2H-benzo[b][1,4]oxazin-6-yl)methyl)piperazin-1-yl)benzamide]	≧10.0
≥ 126 nM	≤ 10 nM	CCC1Oc2ccc(CN3CCN(c4ccccc4O)CC3)cc2NC1=O (stereo not drawn) [Compound 197, 2-Ethyl-6-((4-(2-hydroxyphenyl)piperazin-1-yl)methyl)-2H-benzo[b][1,4]oxazin-3(4H)-one]	1.0-1.9
39.8 to 100 nM	≤ 10 nM	COC(=O)c1ccc(C2CCN(Cc3ccc4c(c3)NC(=O)C(C)O4)CC2)cc1 (stereo not drawn) [Compound 214, Methyl 4-(1-((2-methyl-3-oxo-3,4-dihydro-2H-benzo[b][1,4]oxazin-6-yl)methyl)piperidin-4-yl)benzoate]	≦0.9
≥ 126 nM	≤ 10 nM	CCOC(=O)c1ccc(N2CCN(Cc3ccc4c(c3)NC(=O)C(C)O4)CC2)cc1 (stereo not drawn) [Compound 217, Ethyl 4-(4-((2-methyl-3-oxo-3,4-dihydro-2H-benzo[b][1,4]oxazin-6-yl)methyl)piperazin-1-yl)benzoate]	≦0.9
≤ 31.6 nM	≤ 10 nM	CC1Oc2ccc(CN3CCN(c4ccc(C#N)cc4)CC3)cc2NC1=O (stereo not drawn) [Compound 219, 4-(4-((2-methyl-3-oxo-3,4-dihydro-2H-benzo[b][1,4]oxazin-6-yl)methyl)piperazin-1-yl)benzonitrile]	≦0.9
39.8 to 100 nM	≤ 10 nM	COC(=O)c1ccc(N2CCN(Cc3ccc4c(c3)NC(=O)C(C)O4)CC2)cc1 (stereo not drawn) [Compound 220, Methyl 4-(4-((2-methyl-3-oxo-3,4-dihydro-2H-benzo[b][1,4]oxazin-6-yl)methyl)piperazin-1-yl)benzoate]	1.0-1.9
≥ 126 nM	12.6 to 100 nM	CC1Oc2ccc(CN3CCN(c4ccc(C(F)(F)F)cc4)CC3)cc2NC1=O (stereo not drawn) [Compound 222, 2-Methyl-6-((4-(4-(trifluoromethyl)phenyl)piperazin-1-yl)methyl)-2H-benzo[b][1,4]oxazin-3(4H)-one]	1.0-1.9
≤ 31.6 nM	≤ 10 nM	CNC(=O)c1ccc(N2CCN(Cc3ccc4c(c3)NC(=O)C(C)O4)CC2)cc1 (stereo not drawn) [Compound 223, N-Methyl-4-(4-((2-methyl-3-oxo-3,4-dihydro-2H-benzo[b][1,4]oxazin-6-yl)methyl)piperazin-1-yl)benzamide]	≦0.9
≤ 31.6 nM	≤ 10 nM	CCNC(=O)c1ccc(N2CCN(Cc3ccc4c(c3)NC(=O)C(C)O4)CC2)cc1 (stereo not drawn) [Compound 224, N-Ethyl-4-(4-((2-methyl-3-oxo-3,4-dihydro-2H-benzo[b][1,4]oxazin-6-yl)methyl)piperazin-1-yl)benzamide]	2.0-9.9
≤ 31.6 nM	≤ 10 nM	CC(C)NC(=O)c1ccc(N2CCN(Cc3ccc4c(c3)NC(=O)C(C)O4)CC2)cc1 (stereo not drawn) [Compound 225, N-Isopropyl-4-(4-((2-methyl-3-oxo-3,4-dihydro-2H-benzo[b][1,4]oxazin-6-yl)methyl)piperazin-1-yl)benzamide]	≦0.9
≤ 31.6 nM	≤ 10 nM	CC1Oc2ccc(CN3CCN(c4ccc(C#N)cn4)CC3)cc2NC1=O (stereo not drawn) [Compound 231, 6-(4-((2-Methyl-3-oxo-3,4-dihydro-2H-benzo[b][1,4]oxazin-6-yl)methyl)piperazin-1-yl)nicotinonitrile]	1.0-1.9
39.8 to 100 nM	≤ 10 nM	COC(=O)c1ccc(N2CCN(Cc3ccc4c(c3)NC(=O)C(C)O4)CC2)nc1 (stereo not drawn) [Compound 232, Methyl 6-(4-((2-methyl-3-oxo-3,4-dihydro-2H-benzo[b][1,4]oxazin-6-yl)methyl)piperazin-1-yl)nicotinate]	1.0-1.9
39.8 to 100 nM	≤ 10 nM	CC1Oc2ccc(CN3CCN(c4ccc(C(=O)NCC5CC5)cn4)CC3)cc2NC1=O (stereo not drawn) [Compound 234, N-(Cyclopropylmethyl)-6-(4-((2-methyl-3-oxo-3,4-dihydro-2H-benzo[b][1,4]oxazin-6-yl)methyl)piperazin-1-yl)nicotinamide]	1.0-1.9
≤ 31.6 nM	≤ 10 nM	CNC(=O)c1ccc(N2CCN(Cc3ccc4c(c3)NC(=O)C(C)O4)CC2)nc1 (stereo not drawn) [Compound 235, N-Methyl-6-(4-((2-methyl-3-oxo-3,4-dihydro-2H-benzo[b][1,4]oxazin-6-yl)methyl)piperazin-1-yl)nicotinamide]	2.0-9.9
63.1 nM		CNC(=O)c1ccc(N2CCN(Cc3cc4c(c(OC(F)F)c3)OC(C)C(=O)N4)CC2)cc1 (stereo not drawn) [Compound 403, 4-(4-((8-(Difluoromethoxy)-2-methyl-3-oxo-3,4-dihydro-2H-benzo[b][1,4]oxazin-6-yl)methyl)piperazin-1-yl)-N-methylbenzamide]	>2.0
31.6 nM		CCNC(=O)c1ccc(N2CCN(Cc3cc4c(c(OC(F)F)c3)OC(C)C(=O)N4)CC2)cc1 (stereo not drawn) [Compound 404, 4-(4-((8-(Difluoromethoxy)-2-methyl-3-oxo-3,4-dihydro-2H-benzo[b][1,4]oxazin-6-yl)methyl)piperazin-1-yl)-N-ethylbenzamide]	>2.0
63.1 nM		CNC(=O)c1ccc(N2CCN(Cc3cc4c(c(OC(F)F)c3)OC(C)C(=O)N4)CC2)c(C)c1 (stereo not drawn) [Compound 406, 4-(4-((8-(Difluoromethoxy)-2-methyl-3-oxo-3,4-dihydro-2H-benzo[b][1,4]oxazin-6-yl)methyl)piperazin-1-yl)-N,3-dimethylbenzamide]	13
